From patent US20250009765A1, “COMPOSITIONS AND METHODS FOR REDUCING SLEEP DI[…] TREATING SLEEP DISORDERS” (FloraScience Inc., priority 2023, published 2025)

Assays:
Type in all cases: in vivo, human
sleep disturbance [1] = assay: PROMIS Sleep Disturbance 8A survey, randomized blinded placebo-controlled study
Method: (§1) The primary aim of this study was to assess the effects of three different formulations of TruCBN softgels and a formulation of 4 mg melatonin on sleep quality, relative to placebo control. There were 5 arms within the study; (1) 4 mg melatonin, (2) 25 mg CBN, (3) 50 mg CBN, (4) 100 mg CBN, and (5) placebo (see Table 1 for further details on study arm formulations). All study arms provided the test article as a softgel. Participants were instructed to take 1 softgel 1-2 hours before bed. To ensure that results were not biased, participants were randomly assigned to product, were blinded to the contents, and were not told what they were taking until the conclusion of the study. The secondary aim of the study was to assess the tolerability of the three formulations of TruCBN softgels and 4 mg melatonin, relative to placebo.
(§2) Study participants were at least 21 years old, endorsed a desire for better sleep quality, and expressed interest in taking a cannabinoid product to improve their sleep. The study was entirely virtual; participants were recruited through online recruitment channels, study product was delivered directly to participants' homes, and all data were collected via online surveys delivered to their mobile device or computer. There were four phases of the study (see FIG. 1 for study timeline): (1) Recruitment and Randomization, (2) Baseline (1 week), (3) Study period (2-5 weeks), and (4) Conclusion.
PROMIS™ Sleep Disturbance 8A: An 8-question survey, with severity thresholds based on T-scores not raw scores. The severity scores are established as follows: • “None to slight”=Less than 55 • “Mild”=55.0-59.9 • “Moderate”=60.0-69.9 • “Severe”=70 and up
The range of raw scores were from 8 to 40, with higher scores translating to greater sleep disturbance (i.e., worse sleep quality). PROMIS™ Sleep Disturbance 8A threshold for minimally important difference: One-half the standard deviation of the baseline score (Purvis, Taylor E. et al., SPINE, 2018, 43(21):1512-1520).
(§3) After receiving study product, each participant was instructed to take 1 softgel each day orally 1-2 hours before bed and complete weekly health and product use surveys. This phase of the study lasted about 4 weeks.
(§4) For precision, adjustments were made for sex, age, race, ethnicity, and body mass index (BMI) in every model. […] Analysis was conducted using Stata 17 and R. An intent-to-treat analysis was run, meaning that all participants who were assigned product (aside from the aforementioned exclusions) were included in the analysis according to their product assignment, regardless of product adherence or study attrition. Visuals of the predicted marginal means of health scores, rather than the raw mean scores, were prepared. Predicted marginal means were calculated from the statistical models and better represent the true differences between arms adjusting for any potential imbalances across arms. A finding that was “significant” means that the likelihood of falsely rejecting the null hypothesis that there were no differences between groups was very small (less than 5%; i.e., the p-value was less than 0.05). In other words, when certain findings were said to be “significant” they are not considered the result of random variation.

[2] = Average time to effect reported by participants; settings: 4 mg melatonin softgel, oral
Method: as §3
Participants reported experiencing an effect between 46 and 55 minutes after taking their study product.

sleep disturbance [3] = assay: PROMIS Sleep Disturbance SF4A survey, randomized blinded placebo-controlled study
Method: as §1, §2
The PROMIS™ Sleep Disturbance SF4A threshold for minimally important difference: One-half the standard deviation of the baseline score (Norman, G. R. et al., Med. Care, 2003, 41:582-592).
as §3, §4

sleep disturbance [4] = assay: Participant global impression of change (PGIC) in sleep disturbance
Method: as §1
Participants received a final study survey asking about their overall experiences and impressions. Afterwards they also receive a Report containing their individualized data.
as §4

[5] = Tolerability: side effects reported by participants; settings: 4 mg melatonin
Method: as §1, §3
The side effects for all study arms were similar in frequency and mostly mild; none were considered serious or required use of emergency or non-emergency healthcare services. The most commonly reported side effect was grogginess or drowsiness (see FIG. 7). Additional side effects reported by some participants included: chest pain, constipation, urinary tract infection, tingling in lips, dry mouth, weight gain, dry or itchy eyes, low libido, rash, and brain fog.

[6] = 4 mg melatonin − placebo, 95% CI in parentheses
[7] = 4 mg melatonin, 30% or greater reduction from baseline
[8] = 4 mg melatonin, improvement = 30% or greater reduction from baseline, 95% CI in parentheses

COc1ccc2[nH]cc(CCNC(C)=O)c2c1 [melatonin, reference compound]
Parameter Estimate for PROMIS Sleep Disturbances 8a, Treatment (sleep disturbance [1]; 4 mg Melatonin, reference placebo, linear mixed-effects model): −0.56 | Relative Risk for meaningful clinical improvement on the PROMIS Sleep Disturbance 8A (sleep disturbance [1]; [6]): 1.43 (0.7, 2.16) | Observed % Achieving Meaningful Clinical Improvement on the PROMIS Sleep 8A (sleep disturbance [1]; [7]): 51.9% | % experiencing MCID in PROMIS Sleep Disturbance 8A score (sleep disturbance [1]; 4 mg melatonin, MCID = score reduction of one half the standard deviation of the baseline score): 51.9% | Estimated marginal percentage achieving meaningful clinical improvement on the PROMIS Sleep 8A (sleep disturbance [1]; [8]): 50.5% (37.54%, 67.94%) | Estimated marginal mean, PROMIS Sleep Disturbance 8A (sleep disturbance [1]; 4 mg melatonin, week 1): 20.7 | Estimated marginal mean, PROMIS Sleep Disturbance 8A (sleep disturbance [1]; 4 mg melatonin, week 2): 20.4 | Estimated marginal mean, PROMIS Sleep Disturbance 8A (sleep disturbance [1]; 4 mg melatonin, week 3): 20.7 | Estimated marginal mean, PROMIS Sleep Disturbance 8A (sleep disturbance [1]; 4 mg melatonin, week 4): 20.4 | Average time to effect [2]: 49.1 min | Relative Risk for meaningful clinical improvement on the PROMIS Sleep SF4A (sleep disturbance [3]; [6]): 1.49 (0.74, 2.25) | Observed % Achieving Meaningful Clinical Improvement on the PROMIS Sleep SF4A (sleep disturbance [3]; [7]): 53.25% | Estimated marginal percentage achieving meaningful clinical improvement on the PROMIS Sleep SF4A (sleep disturbance [3]; [8]): 51.25% (38.25%, 68.7%) | Estimated marginal mean, PROMIS Sleep Disturbance SF4A (sleep disturbance [3]; 4 mg melatonin, week 1): 10.8 | Estimated marginal mean, PROMIS Sleep Disturbance SF4A (sleep disturbance [3]; 4 mg melatonin, week 2): 10.7 | Estimated marginal mean, PROMIS Sleep Disturbance SF4A (sleep disturbance [3]; 4 mg melatonin, week 3): 10.7 | Estimated marginal mean, PROMIS Sleep Disturbance SF4A (sleep disturbance [3]; 4 mg melatonin, week 4): 10.5 | Parameter estimate for PGIC in sleep disturbance (sleep disturbance [4]; 4 mg Melatonin, treatment reference placebo, log-odds scale): 0.79 | Marginal mean (95% confidence interval), sleep disturbance PGIC (sleep disturbance [4]; 4 mg melatonin): 3.88 | Odds Ratio (95% Confidence interval), sleep disturbance PGIC (sleep disturbance [4]; 4 mg melatonin − placebo, Dunnett correction): 2.21 (1.15, 4.21) | % of participants reporting any side effects [5]: 11.9%
